In the kinase profiling compilation of Christmann-Franck et al. (2016):
Values belong to the compound of their own block, whether it stands above or below them.

Columns and labels:
Test in all cases: radiometric filter-binding kinase assay
CLK2 (human) = CLK2 (human) (UniProt P49760)
HIPK3 (human) = HIPK3 (human) (UniProt Q9H422)
HIPK1 (human) = HIPK1 (human) (UniProt Q86Z02)
PRKCZ (human) = PRKCZ (human) (UniProt Q05513)
HIPK2 (human) = HIPK2 (human) (UniProt Q9H2X6)
[1] = test system: AKT2 (human), P31751 [S474D]
MAPK13 (human) = MAPK13 (human) (UniProt O15264)
RPS6KA5 KD1 KD2 (human) = RPS6KA5 KD1 KD2 (human) (UniProt O75582)
MAP3K7 TAB1 (human) = MAP3K7 TAB1 (human) (UniProt Q15750+O43318)
LCK (mouse) = conditions: accession and sequence are those of the human protein
MAP3K1 (human) = MAP3K1 (human) (UniProt Q13233)
DAPK1 (human) = DAPK1 (human) (UniProt P53355)
CAMKK2 (human) = CAMKK2 (human) (UniProt Q96RR4)
PAK7 (human) = PAK7 (human) (UniProt Q9P286)
SRC (human) = SRC (human) (UniProt P12931)
YES1 (human) = YES1 (human) (UniProt P07947)
MAP3K5 (human) = MAP3K5 (human) (UniProt Q99683)
MAP3K9 (human) = MAP3K9 (human) (UniProt P80192)
EPHB3 (human) = EPHB3 (human) (UniProt P54753)
IGF1R (human) = IGF1R (human) (UniProt P08069)
SYK (human) = SYK (human) (UniProt P43405)
EPHB4 (human) = EPHB4 (human) (UniProt P54760)
CSK (human) = CSK (human) (UniProt P41240)
GSK3B (human) = GSK3B (human) (UniProt P49841)
ROCK2 (rat) = conditions: accession and sequence are those of the human protein
PAK6 (human) = PAK6 (human) (UniProt Q9NQU5)
MARK4 (human) = MARK4 (human) (UniProt Q96L34)
PLK1 (human) = PLK1 (human) (UniProt P53350)
EPHB1 (human) = EPHB1 (human) (UniProt P54762)
PRKAA1 or PRKAA2 (rat) = conditions: accession and sequence are those of the human protein
INSR (human) = INSR (human) (UniProt P06213)
MAPK1 (human) = MAPK1 (human) (UniProt P28482)
PKN2 (human) = PKN2 (human) (UniProt Q16513)
BRSK2 (human) = BRSK2 (human) (UniProt Q8IWQ3)
EPHA4 (human) = EPHA4 (human) (UniProt P54764)
MAPK11 (human) = MAPK11 (human) (UniProt Q15759)

INSR (human), sequence (P06213 whole entry, looked up): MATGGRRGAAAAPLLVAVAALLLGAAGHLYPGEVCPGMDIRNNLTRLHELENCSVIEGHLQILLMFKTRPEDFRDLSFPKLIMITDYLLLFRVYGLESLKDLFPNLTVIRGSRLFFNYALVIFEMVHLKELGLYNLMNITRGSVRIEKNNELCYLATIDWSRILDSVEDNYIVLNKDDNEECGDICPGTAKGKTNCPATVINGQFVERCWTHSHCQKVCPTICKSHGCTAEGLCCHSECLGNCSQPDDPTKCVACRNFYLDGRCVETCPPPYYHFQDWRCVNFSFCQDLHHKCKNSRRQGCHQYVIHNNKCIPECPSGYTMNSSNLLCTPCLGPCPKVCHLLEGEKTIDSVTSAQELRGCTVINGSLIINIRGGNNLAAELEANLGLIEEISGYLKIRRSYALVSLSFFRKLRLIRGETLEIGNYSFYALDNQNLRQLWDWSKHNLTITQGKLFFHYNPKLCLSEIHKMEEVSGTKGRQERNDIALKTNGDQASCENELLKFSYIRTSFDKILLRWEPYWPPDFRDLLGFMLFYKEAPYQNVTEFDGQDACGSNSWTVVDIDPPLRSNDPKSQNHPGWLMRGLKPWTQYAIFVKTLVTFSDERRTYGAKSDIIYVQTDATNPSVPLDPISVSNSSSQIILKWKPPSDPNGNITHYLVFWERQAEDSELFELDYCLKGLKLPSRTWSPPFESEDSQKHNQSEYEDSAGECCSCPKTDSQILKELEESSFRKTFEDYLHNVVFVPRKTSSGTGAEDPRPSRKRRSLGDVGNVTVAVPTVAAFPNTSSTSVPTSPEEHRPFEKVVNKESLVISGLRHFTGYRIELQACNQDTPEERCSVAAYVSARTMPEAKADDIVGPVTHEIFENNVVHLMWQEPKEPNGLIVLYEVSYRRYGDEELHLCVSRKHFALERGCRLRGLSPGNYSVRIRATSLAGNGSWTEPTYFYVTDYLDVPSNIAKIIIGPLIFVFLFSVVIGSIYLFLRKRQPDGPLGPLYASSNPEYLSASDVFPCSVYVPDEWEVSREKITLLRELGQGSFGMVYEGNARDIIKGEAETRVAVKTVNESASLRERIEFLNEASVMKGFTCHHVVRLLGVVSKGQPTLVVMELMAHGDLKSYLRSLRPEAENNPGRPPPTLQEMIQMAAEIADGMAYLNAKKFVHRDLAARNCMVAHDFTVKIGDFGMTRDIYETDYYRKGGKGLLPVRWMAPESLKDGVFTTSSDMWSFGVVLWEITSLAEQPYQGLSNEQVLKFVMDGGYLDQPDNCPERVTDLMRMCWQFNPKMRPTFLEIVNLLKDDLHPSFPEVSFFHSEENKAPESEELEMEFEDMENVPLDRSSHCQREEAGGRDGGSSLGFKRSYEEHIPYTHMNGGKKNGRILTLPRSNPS
GSK3B (human), sequence (P49841 whole entry, looked up): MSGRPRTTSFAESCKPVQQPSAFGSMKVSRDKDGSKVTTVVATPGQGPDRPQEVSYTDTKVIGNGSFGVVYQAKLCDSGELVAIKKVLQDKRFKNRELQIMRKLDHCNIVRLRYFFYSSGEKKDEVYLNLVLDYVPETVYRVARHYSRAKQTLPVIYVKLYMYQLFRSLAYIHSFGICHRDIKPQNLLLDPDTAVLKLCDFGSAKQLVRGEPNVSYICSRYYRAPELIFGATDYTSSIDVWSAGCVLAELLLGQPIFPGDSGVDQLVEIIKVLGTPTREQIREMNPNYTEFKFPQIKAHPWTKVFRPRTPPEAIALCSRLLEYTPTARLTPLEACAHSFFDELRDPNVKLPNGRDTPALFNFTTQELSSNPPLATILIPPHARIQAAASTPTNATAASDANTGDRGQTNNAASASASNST
CAMKK2 (human), sequence (Q96RR4 whole entry, looked up): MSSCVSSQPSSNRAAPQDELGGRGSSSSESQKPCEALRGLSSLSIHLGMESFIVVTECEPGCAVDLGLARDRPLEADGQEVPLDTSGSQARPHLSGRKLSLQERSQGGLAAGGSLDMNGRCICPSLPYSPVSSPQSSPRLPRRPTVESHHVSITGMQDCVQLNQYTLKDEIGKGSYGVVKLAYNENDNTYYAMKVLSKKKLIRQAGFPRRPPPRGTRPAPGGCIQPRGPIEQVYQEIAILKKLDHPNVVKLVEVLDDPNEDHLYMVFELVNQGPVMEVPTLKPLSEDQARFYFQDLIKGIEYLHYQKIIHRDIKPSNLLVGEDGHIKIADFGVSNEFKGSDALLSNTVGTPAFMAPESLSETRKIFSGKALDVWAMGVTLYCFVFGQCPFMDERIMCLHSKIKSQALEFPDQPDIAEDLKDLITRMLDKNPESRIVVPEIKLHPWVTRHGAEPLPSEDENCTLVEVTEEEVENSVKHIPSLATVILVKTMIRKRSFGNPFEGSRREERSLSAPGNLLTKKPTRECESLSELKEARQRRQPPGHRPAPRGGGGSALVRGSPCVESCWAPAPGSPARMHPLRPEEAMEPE
EPHB1 (human), sequence (P54762 whole entry, looked up): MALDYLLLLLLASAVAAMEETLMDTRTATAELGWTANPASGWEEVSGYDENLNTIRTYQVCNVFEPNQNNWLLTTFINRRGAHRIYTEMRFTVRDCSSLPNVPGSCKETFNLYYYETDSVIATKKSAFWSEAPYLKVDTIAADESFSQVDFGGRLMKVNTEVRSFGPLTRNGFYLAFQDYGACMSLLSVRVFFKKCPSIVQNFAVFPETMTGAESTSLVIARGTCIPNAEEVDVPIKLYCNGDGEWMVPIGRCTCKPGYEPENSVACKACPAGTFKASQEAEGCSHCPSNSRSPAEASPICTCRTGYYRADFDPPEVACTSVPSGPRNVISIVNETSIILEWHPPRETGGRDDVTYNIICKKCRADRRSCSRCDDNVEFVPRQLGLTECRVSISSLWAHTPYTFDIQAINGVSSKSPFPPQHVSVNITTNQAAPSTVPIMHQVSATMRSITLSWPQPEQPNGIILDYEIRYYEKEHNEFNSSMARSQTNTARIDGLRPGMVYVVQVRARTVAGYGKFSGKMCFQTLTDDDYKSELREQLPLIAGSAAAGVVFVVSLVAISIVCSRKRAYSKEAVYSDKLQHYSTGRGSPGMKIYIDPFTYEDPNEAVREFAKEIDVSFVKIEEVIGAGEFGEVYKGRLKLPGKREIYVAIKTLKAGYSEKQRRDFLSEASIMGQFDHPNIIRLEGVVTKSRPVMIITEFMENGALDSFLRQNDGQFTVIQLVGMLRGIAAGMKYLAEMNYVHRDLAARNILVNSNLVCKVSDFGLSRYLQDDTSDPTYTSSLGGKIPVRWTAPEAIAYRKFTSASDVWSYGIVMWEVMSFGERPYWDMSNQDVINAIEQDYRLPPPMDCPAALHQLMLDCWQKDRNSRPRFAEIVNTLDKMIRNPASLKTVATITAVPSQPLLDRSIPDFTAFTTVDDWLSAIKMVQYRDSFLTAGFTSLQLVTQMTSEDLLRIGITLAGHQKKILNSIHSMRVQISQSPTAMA
MAP3K9 (human), sequence (P80192 whole entry, looked up): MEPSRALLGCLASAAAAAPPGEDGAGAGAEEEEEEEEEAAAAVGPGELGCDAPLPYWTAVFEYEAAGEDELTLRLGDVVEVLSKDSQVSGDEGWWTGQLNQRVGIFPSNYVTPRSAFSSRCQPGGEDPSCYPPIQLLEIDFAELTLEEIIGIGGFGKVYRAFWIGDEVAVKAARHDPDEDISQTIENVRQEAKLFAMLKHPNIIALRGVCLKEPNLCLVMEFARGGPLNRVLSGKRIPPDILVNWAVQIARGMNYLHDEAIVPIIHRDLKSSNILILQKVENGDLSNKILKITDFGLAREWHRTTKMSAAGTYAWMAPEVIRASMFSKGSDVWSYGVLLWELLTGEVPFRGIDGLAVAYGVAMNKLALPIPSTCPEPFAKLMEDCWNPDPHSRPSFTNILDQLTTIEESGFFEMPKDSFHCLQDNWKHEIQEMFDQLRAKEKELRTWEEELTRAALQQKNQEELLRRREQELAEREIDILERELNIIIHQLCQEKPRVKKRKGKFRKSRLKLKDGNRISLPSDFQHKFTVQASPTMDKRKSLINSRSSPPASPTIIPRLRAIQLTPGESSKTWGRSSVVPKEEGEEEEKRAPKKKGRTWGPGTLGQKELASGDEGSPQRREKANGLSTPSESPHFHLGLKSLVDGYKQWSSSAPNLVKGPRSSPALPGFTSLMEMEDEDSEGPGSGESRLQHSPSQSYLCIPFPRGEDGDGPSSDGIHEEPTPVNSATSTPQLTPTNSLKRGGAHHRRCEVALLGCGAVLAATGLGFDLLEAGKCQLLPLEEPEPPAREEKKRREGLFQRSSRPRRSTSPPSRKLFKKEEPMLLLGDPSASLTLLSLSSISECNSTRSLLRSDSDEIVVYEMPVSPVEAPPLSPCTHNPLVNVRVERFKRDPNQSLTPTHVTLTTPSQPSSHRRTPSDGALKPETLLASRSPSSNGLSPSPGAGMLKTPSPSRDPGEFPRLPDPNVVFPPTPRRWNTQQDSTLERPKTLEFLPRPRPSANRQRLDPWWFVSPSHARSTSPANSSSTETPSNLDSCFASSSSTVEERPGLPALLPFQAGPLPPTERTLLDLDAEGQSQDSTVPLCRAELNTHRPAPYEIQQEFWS
SRC (human), sequence (P12931 whole entry, looked up): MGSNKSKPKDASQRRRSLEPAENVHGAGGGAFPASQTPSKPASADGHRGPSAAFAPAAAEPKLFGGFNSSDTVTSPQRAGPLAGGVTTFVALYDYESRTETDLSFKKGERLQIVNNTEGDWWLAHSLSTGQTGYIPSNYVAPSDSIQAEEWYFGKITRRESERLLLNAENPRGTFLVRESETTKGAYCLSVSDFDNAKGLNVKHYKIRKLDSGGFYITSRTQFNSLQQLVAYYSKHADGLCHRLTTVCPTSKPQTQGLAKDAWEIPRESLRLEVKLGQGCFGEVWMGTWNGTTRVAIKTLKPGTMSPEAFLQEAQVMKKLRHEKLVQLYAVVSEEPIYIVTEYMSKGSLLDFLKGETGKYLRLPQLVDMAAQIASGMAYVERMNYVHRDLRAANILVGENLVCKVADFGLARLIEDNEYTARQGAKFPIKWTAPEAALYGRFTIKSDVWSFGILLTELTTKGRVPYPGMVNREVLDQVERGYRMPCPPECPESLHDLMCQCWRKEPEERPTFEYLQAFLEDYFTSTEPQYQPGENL

residual activity (CLK2 (human); compound 1.0 µM): 80%
residual activity (CLK2 (human); compound 10.0 µM): 12%
residual activity (HIPK3 (human); compound 1.0 µM): 96%
residual activity (HIPK3 (human); compound 10.0 µM): 10%
residual activity (HIPK1 (human); compound 1.0 µM): 104%
residual activity (HIPK1 (human); compound 10.0 µM): 9%
residual activity (PRKCZ (human); compound 1.0 µM): 100%
residual activity (PRKCZ (human); compound 10.0 µM): 67%
residual activity (HIPK2 (human); compound 1.0 µM): 64%
residual activity (HIPK2 (human); compound 10.0 µM): 10%
residual activity ([1]; compound 1.0 µM): 77%
residual activity ([1]; compound 10.0 µM): 62%
residual activity (MAPK13 (human); compound 1.0 µM): 92%
residual activity (MAPK13 (human); compound 10.0 µM): 54%
residual activity (RPS6KA5 KD1 KD2 (human); compound 1.0 µM): 90%
residual activity (RPS6KA5 KD1 KD2 (human); compound 10.0 µM): 20%
residual activity (MAP3K7 TAB1 (human); compound 1.0 µM): 82%
residual activity (MAP3K7 TAB1 (human); compound 10.0 µM): 75%
residual activity (LCK (mouse); compound 1.0 µM): 113%
residual activity (LCK (mouse); compound 10.0 µM): 99%
residual activity (MAP3K1 (human); compound 1.0 µM): 99%
residual activity (MAP3K1 (human); compound 10.0 µM): 51%
residual activity (DAPK1 (human); compound 1.0 µM): 88%
residual activity (DAPK1 (human); compound 10.0 µM): 18%
residual activity (CAMKK2 (human); compound 1.0 µM): 84%
residual activity (CAMKK2 (human); compound 10.0 µM): 23%
residual activity (PAK7 (human); compound 1.0 µM): 81%
residual activity (PAK7 (human); compound 10.0 µM): 66%
residual activity (SRC (human); compound 1.0 µM): 85%
residual activity (SRC (human); compound 10.0 µM): 92%
residual activity (YES1 (human); compound 1.0 µM): 91%
residual activity (YES1 (human); compound 10.0 µM): 87%
residual activity (MAP3K5 (human); compound 1.0 µM): 104%
residual activity (MAP3K5 (human); compound 10.0 µM): 112%
residual activity (MAP3K9 (human); compound 1.0 µM): 95%
residual activity (MAP3K9 (human); compound 10.0 µM): 42%
residual activity (EPHB3 (human); compound 1.0 µM): 93%
residual activity (EPHB3 (human); compound 10.0 µM): 96%
residual activity (IGF1R (human); compound 1.0 µM): 107%
residual activity (IGF1R (human); compound 10.0 µM): 95%
residual activity (SYK (human); compound 1.0 µM): 107%
residual activity (SYK (human); compound 10.0 µM): 95%
residual activity (EPHB4 (human); compound 1.0 µM): 97%
residual activity (EPHB4 (human); compound 10.0 µM): 96%
residual activity (CSK (human); compound 1.0 µM): 86%
residual activity (CSK (human); compound 10.0 µM): 100%
residual activity (GSK3B (human); compound 1.0 µM): 38%
residual activity (GSK3B (human); compound 10.0 µM): 10%
residual activity (ROCK2 (rat); compound 1.0 µM): 73%
residual activity (ROCK2 (rat); compound 10.0 µM): 38%
residual activity (PAK6 (human); compound 1.0 µM): 89%
residual activity (PAK6 (human); compound 10.0 µM): 87%
residual activity (MARK4 (human); compound 1.0 µM): 86%
residual activity (MARK4 (human); compound 10.0 µM): 78%
residual activity (PLK1 (human); compound 1.0 µM): 90%
residual activity (PLK1 (human); compound 10.0 µM): 24%
residual activity (EPHB1 (human); compound 1.0 µM): 95%
residual activity (EPHB1 (human); compound 10.0 µM): 107%
residual activity (PRKAA1 or PRKAA2 (rat); compound 1.0 µM): 77%
residual activity (PRKAA1 or PRKAA2 (rat); compound 10.0 µM): 49%
residual activity (INSR (human); compound 1.0 µM): 111%
residual activity (INSR (human); compound 10.0 µM): 108%
residual activity (MAPK1 (human); compound 1.0 µM): 96%
residual activity (MAPK1 (human); compound 10.0 µM): 96%
residual activity (PKN2 (human); compound 1.0 µM): 80%
residual activity (PKN2 (human); compound 10.0 µM): 53%
residual activity (BRSK2 (human); compound 1.0 µM): 92%
residual activity (BRSK2 (human); compound 10.0 µM): 95%
residual activity (EPHA4 (human); compound 1.0 µM): 103%
residual activity (EPHA4 (human); compound 10.0 µM): 112%
residual activity (MAPK11 (human); compound 1.0 µM): 97%
residual activity (MAPK11 (human); compound 10.0 µM): 104%
Compound: NC(=O)c1ccc(-c2ccc(Oc3cncc4sc(-c5nn[nH]n5)cc34)cc2)cc1

residual activity (CLK2 (human); compound 10.0 µM): 18%
residual activity (HIPK3 (human); compound 1.0 µM): 102%
residual activity (HIPK3 (human); compound 10.0 µM): 61%
residual activity (HIPK1 (human); compound 10.0 µM): 58%
residual activity (PRKCZ (human); compound 1.0 µM): 97%
residual activity (PRKCZ (human); compound 10.0 µM): 95%
residual activity (HIPK2 (human); compound 1.0 µM): 49%
residual activity (HIPK2 (human); compound 10.0 µM): 32%
residual activity ([1]; compound 1.0 µM): 72%
residual activity ([1]; compound 10.0 µM): 98%
residual activity (MAPK13 (human); compound 1.0 µM): 112%
residual activity (MAPK13 (human); compound 10.0 µM): 86%
residual activity (RPS6KA5 KD1 KD2 (human); compound 1.0 µM): 78%
residual activity (RPS6KA5 KD1 KD2 (human); compound 10.0 µM): 58%
residual activity (MAP3K7 TAB1 (human); compound 1.0 µM): 100%
residual activity (MAP3K7 TAB1 (human); compound 10.0 µM): 70%
residual activity (LCK (mouse); compound 1.0 µM): 35%
residual activity (LCK (mouse); compound 10.0 µM): 33%
residual activity (MAP3K1 (human); compound 1.0 µM): 77%
residual activity (MAP3K1 (human); compound 10.0 µM): 54%
residual activity (DAPK1 (human); compound 1.0 µM): 54%
residual activity (DAPK1 (human); compound 10.0 µM): 51%
residual activity (CAMKK2 (human); compound 1.0 µM): 112%
residual activity (CAMKK2 (human); compound 10.0 µM): 86%
residual activity (PAK7 (human); compound 1.0 µM): 80%
residual activity (PAK7 (human); compound 10.0 µM): 58%
residual activity (SRC (human); compound 1.0 µM): 57%
residual activity (SRC (human); compound 10.0 µM): 64%
residual activity (YES1 (human); compound 1.0 µM): 43%
residual activity (YES1 (human); compound 10.0 µM): 58%
residual activity (MAP3K5 (human); compound 1.0 µM): 83%
residual activity (MAP3K5 (human); compound 10.0 µM): 69%
residual activity (MAP3K9 (human); compound 1.0 µM): 28%
residual activity (MAP3K9 (human); compound 10.0 µM): 8%
residual activity (EPHB3 (human); compound 1.0 µM): 40%
residual activity (EPHB3 (human); compound 10.0 µM): 27%
residual activity (IGF1R (human); compound 1.0 µM): 89%
residual activity (IGF1R (human); compound 10.0 µM): 92%
residual activity (SYK (human); compound 1.0 µM): 95%
residual activity (SYK (human); compound 10.0 µM): 87%
residual activity (EPHB4 (human); compound 1.0 µM): 94%
residual activity (EPHB4 (human); compound 10.0 µM): 82%
residual activity (CSK (human); compound 1.0 µM): 81%
residual activity (CSK (human); compound 10.0 µM): 74%
residual activity (GSK3B (human); compound 1.0 µM): 90%
residual activity (GSK3B (human); compound 10.0 µM): 68%
residual activity (ROCK2 (rat); compound 1.0 µM): 93%
residual activity (ROCK2 (rat); compound 10.0 µM): 61%
residual activity (PAK6 (human); compound 1.0 µM): 95%
residual activity (PAK6 (human); compound 10.0 µM): 67%
residual activity (MARK4 (human); compound 1.0 µM): 57%
residual activity (MARK4 (human); compound 10.0 µM): 42%
residual activity (PLK1 (human); compound 1.0 µM): 65%
residual activity (PLK1 (human); compound 10.0 µM): 55%
residual activity (EPHB1 (human); compound 1.0 µM): 79%
residual activity (EPHB1 (human); compound 10.0 µM): 95%
residual activity (PRKAA1 or PRKAA2 (rat); compound 1.0 µM): 10%
residual activity (PRKAA1 or PRKAA2 (rat); compound 10.0 µM): 9%
residual activity (INSR (human); compound 1.0 µM): 104%
residual activity (INSR (human); compound 10.0 µM): 105%
residual activity (MAPK1 (human); compound 1.0 µM): 104%
residual activity (MAPK1 (human); compound 10.0 µM): 88%
residual activity (PKN2 (human); compound 1.0 µM): 63%
residual activity (PKN2 (human); compound 10.0 µM): 64%
residual activity (BRSK2 (human); compound 10.0 µM): 30%
residual activity (EPHA4 (human); compound 1.0 µM): 57%
residual activity (EPHA4 (human); compound 10.0 µM): 45%
residual activity (MAPK11 (human); compound 1.0 µM): 103%
Compound: COc1cc2ncn(-c3cc(OCc4ccccc4S(C)(=O)=O)c(C#N)s3)c2cc1OC
